These results are taken from patent EP1336602A1, “Nitrate prodrugs able to release nitric oxide in a controlled and selective way and their use for prevention and treatment of inflammatory, ischemic and proliferative diseases” (Scaramuzzino, Giovanni, priority 2002, dated 2003).

The conditions of series [1]: male, Wistar, in vivo, po, 1.09 mg/kg.
For series [2], the system named is S-nitrosohemoglobin (SNO-Hb). Nature of the series: S-nitrosohemoglobin (SNO-Hb) levels in rat blood, photolysis-chemiluminescence. The format is in vivo, Sprague-Dawely rats. To be noted: 100 mg/Kg i.p., versus endogenous levels. Here is the method:
A highly sensitive photolysis-chemiluminescence methodology was used. Nitric oxide, released from Hb-SNO through photolysis, was detected in a chemiluminescence spectrometer by reaction with ozone (McMahon, T. J., and Stamler, J. S. (1999) Methods Enzymol. 301, 99-114).
Blood was obtained from the left ventricle (arterial) and jugular vein (venous) of anesthetized Sprague-Dawely rats: 12 were controls and 12 were treated with 100 mg/Kg of N-[4-(5-p-tolyl-3-trifluoromethyl-1H-pyrazol-1-yl)phenylsulfonyl]-p-nitroxymethylbenzamide (Ela). Red blood cells were isolated by centrifugation at 800 g, washed three times in phosphate buffered saline at 4 °C, lysed by the addition of 4-fold excess volume of deionized water containing 0.5 mM EDTA and desalted rapidly according to the method of Penefsky at 4 °C.
In 24 rats, Hb samples were divided in two aliquots which were then treated or not treated with 10-fold excess HgCl2 which can remove the signal of Hb(Fell)NO.

`C[C@@H]1C[C@H]2[C@@H]3CCC4=CC(=O)C=C[C@]4(C)[C@@]3(F)[C@@H](O)C[C@]2(C)[C@@]1(O)C(=O)COC(=O)c1ccc(CO[N+](=O)[O-])cc1` [ECXCa, (11β,16α)-9-fluoro-11,17-dihydroxy-21-(p-nitroxymethylbenzoyloxy)-pregna-1,4-diene-3,20-dione]: in series [1], the “Rat arterial blood pressure” value amounted to 100%.
As for `Cc1ccc(-c2cc(C(F)(F)F)nn2-c2ccc(S(=O)(=O)NC(=O)c3ccc(CO[N+](=O)[O-])cc3)cc2)cc1` [Ela, N-[4-(5-p-tolyl-3-trifluoromethyl-1H-pyrazol-1-yl)phenylsulfonyl]-p-nitroxymethylbenzamide], the “S-nitrosohemoglobin (SNO-Hb) levels in rat arterial blood” value in series [2] (arterial blood (left ventricle)) is “significantly increase”. For the same molecule, in series [2] (venous blood (jugular vein)), the “S-nitrosohemoglobin (SNO-Hb) levels in rat venous blood” value is “significantly increase”.
